According to ChEMBL document CHEMBL3745643, “Recent Advances in the Discovery of Norovirus Therapeutics” (J Med Chem, 2015):
Values belong to the molecule of their own block, whether it stands above or below them. Peptide text beside a SMILES is read from it. * marks the point of attachment. Pyrrolidide = C1CCN(*)C1; Cbz = O=C(OCc1ccccc1)*

Columns and labels:
[1] = Inhibition of Norovirus RNA dependent RNA polymerase by spectrophotometry
[2] = system: Norovirus; test: Antiviral activity against Norovirus infected in HuH7 cells assessed as decrease in viral RNA level after 72 hrs by qRT-PCR analysis; format: functional, cell-based; details: Huh-7, 72 h
[3] = system: Norovirus; test: Antiviral activity against Norovirus infected in HG23 cells assessed as decrease in viral RNA level by qRT-PCR analysis; format: functional, cell-based
[4] = Inhibition of recombinant His-tagged Norovirus 3C-like protease for 45 mins followed by addition of 30 uM EDANS-EPDFHLQGPEDLAK-Dabcyl substrate by FRET assay
[5] = Inhibition of Norovirus 3C-like protease by FRET assay

EC50 [1]: 28 nM
SMILES: Cc1ccc(C(=O)Nc2ccc(S(=O)(=O)O)c3cccc(S(=O)(=O)O)c23)cc1NC(=O)c1cccc(NC(=O)Nc2cccc(C(=O)Nc3cc(C(=O)Nc4ccc(S(=O)(=O)O)c5cccc(S(=O)(=O)O)c45)ccc3C)c2)c1

EC50 [2]: 30100 nM
SMILES: Cc1nc(-c2ccccc2)sc1C(=O)Nc1sc2c(c1C#N)CCC2

EC50 [3]: 18000 nM
SMILES: C[C@@]1(O)[C@H](O)[C@@H](CO)O[C@H]1n1ccc(N)nc1=O

EC50 [4]: 75 nM
SMILES: CC(C)C[C@H](NC(=O)OCc1ccccc1)C(=O)N[C@@H](Cc1ccccc1)C(=O)N[C@H](C=O)CCC(=O)N1CCCC1 (Cbz-Leu-Phe-Glu(Pyrrolidide)-aldehyde)

EC50 [5]: 23 nM
SMILES: CCOC(=O)/C=C/[C@H](C[C@@H]1CCNC1=O)NC(=O)[C@@H](CC(=O)[C@@H](NC(=O)c1cc(C)on1)C(C)C)Cc1ccc(F)cc1 [RUPINTRIVIR]

EC50 [1]: 27 nM
SMILES: Cc1ccc(C(=O)Nc2ccc(S(=O)(=O)O)c3cc(S(=O)(=O)O)cc(S(=O)(=O)O)c23)cc1NC(=O)c1cccc(NC(=O)Nc2cccc(C(=O)Nc3cc(C(=O)Nc4ccc(S(=O)(=O)O)c5cc(S(=O)(=O)O)cc(S(=O)(=O)O)c45)ccc3C)c2)c1 [SURAMIN HEXASODIUM]
